According to patent US6271416A, “Quinolinone derivative, method for preparing the same, and anti-allergic agent” (Dainippon Ink and Chemicals, Inc., priority 1997, dated 2001):

Tested on: homologous passive cutaneous anaphylaxis (PCA) reaction
Assay: Effect on homologous passive cutaneous anaphylaxis (PCA) reaction in rats
Assay type: in vivo, rat (male wistar)
Settings: Rattus norvegicus, 1 hour before induction; for inhibition in vivo at 100 mg/kg: test compounds, 100 mg/kg oral
Method: Effect on homologous passive cutaneous anaphylaxis (PCA) reaction in rats
This experimental animal model is caused by immediate type allergic reaction, namely, antigen-antibody reaction. In the following, the method of this pharmacological test will be explained.
Method: Male wistar rats (9 weeks old) were intradermally administered 0.05 ml of anti-serum against dinitrophenylated ascaris (DNP-As) into two sites on the shaved dorsal skin. 48 hours later, quinolinone derivatives (test compounds) suspended in 0.5% methylcellulose (MC) were given orally at a dose of 100 mg/kg to the animals. 1 hour after administration of Test compounds, the animals were induced anaphylaxis by injection of saline (1 ml) dissolving 1 mg of trinitrophenylated ascaris (TNP-As) and 5 mg of Evans Blue into the tail vein of the animals. 30 minutes after induction of anaphylaxis, animals were anesthetized by ether and killed by bleeding, and were flayed dorsal skin. The leakage of dye was assessed by measuring the diameter (mean of shortest and longest diameter) of the blue spot on the inside surface of dorsal skin. As vehicle control group, only 0.5% MC solution was administered orally, and as positive control group, Tranilast suspended in 0.5% MC were administered orally at a dose of 200 mg/kg to the animals with the same method as the test compounds groups. Each experimental group consisted of 5 rats. In the conditions of this experinent, it was considered that the compound, which inhibited PCA reaction by over forty (40) percent against that in vehicle control group, was evidently effective for immediate type allergy.
Inhibition (%)=(A-B)/A×100 (Equation 1)
A: leakage of dye in vehicle control group
B: leakage of dye in test compound group or positive control group

SMILES	inhibition in vivo at 100 mg/kg [%]	inhibition in vivo at 200 mg/kg (positive control, 200 mg/kg oral) [%]
CCOc1c(O)c2c(N)cccc2n(C)c1=O [Compound 23, 5-amino-3-ethoxy-4-hydroxy-1-methyl-2(1H)-quinolinone]	40	
Cn1c(=O)c(Oc2ccccc2)c(O)c2cc(N)ccc21 [Compound 24, 6-amino-3-phenoxy-4-hydroxy-1-methyl-2(1H)-quinolinone]	42	
CC(=O)Nc1ccc2c(c1)c(O)c(Oc1ccccc1)c(=O)n2C [Compound 26, 6-acetylamino-3-phenoxy-4-hydroxy-1-methyl-2(1H)-quinolinone]	39	
CCCCCCCCn1c(=O)c(Oc2ccccc2)c(O)c2cc(-c3ccccc3)ccc21 [Compound 34, 6-phenyl-3-phenoxy-4-hydroxy-1-octyl-2(1H)-quinolinone]	37	
COc1c(O)c2c(O)cc(O)cc2n(C)c1=O [Compound 36, 5,7-dihydroxy-3-methoxy-4-hydroxy-1-methyl-2(1H)-quinolinone]	45	
CCCCOc1c(O)c2c(C(=O)OCC)cccc2n(C)c1=O [Compound 38, 5-ethoxycarbonyl-3-butoxy-4-hydroxy-1-methyl-2(1H)-quinolinone]	45	
CCOc1c(O)c2c(N)cccc2n(C/C=C(\C)CCC=C(C)C)c1=O [Compound 44, 5-amino-3-ethoxy-4-hydroxy-1-geranyl-2(1H)-quinolinone]	42	
CC(C)=CCC/C(C)=C/COc1c(O)c2cccc(N)c2n(C)c1=O [Compound 45, 8-amino-3-geranyloxy-4-hydroxy-1-methyl-2(1H)-quinolinone]	46	
CCCCCCCCCCNc1ccc2c(c1)c(O)c(OC)c(=O)n2C [Compound 49, 6-decylamino-3-methoxy-4-hydroxy-1-methyl-2(1H)-quinolinone]	50	
COc1c(O)c2cc(NC/C=C(\C)CCC=C(C)C)ccc2n(C)c1=O [Compound 52, 6-geranylamino-3-methoxy-4-hydroxy-1-methyl-2(1H)-quinolinone]	49	
CCCCNc1cccc2c(O)c(OC/C=C(\C)CCC=C(C)C)c(=O)n(C)c12 [Compound 53, 8-butylamino-3-geranyloxy-4-hydroxy-1-methyl-2(1H)-quinolinone]	45	
CCCCCCCCCCOc1ccc2c(c1)c(O)c(OC)c(=O)n2C [Compound 54, 6-decyloxy-3-methoxy-4-hydroxy-1-methyl-2(1H)-quinolinone]	50	
COc1c(O)c2cc(C/C=C(\C)CCC=C(C)C)ccc2n(C)c1=O [Compound 61, 6-geranyl-3-methoxy-4-hydroxy-1-methyl-2(1H)-quinolinone]	42	
CCCCCCCCCCOC(=O)c1cccc2c1c(O)c(OCCCC)c(=O)n2C [Compound 68, 5-decyloxycarbonyl-3-butoxy-4-hydroxy-1-methyl-2(1H)-quinolinone]	49	
CCCCCCCCOc1c(O)c2ccc(NC(C)=O)cc2n(C)c1=O [Compound 76, 7-acetylamino-3-octyloxy-4-hydroxy-1-methyl-2(1H)-quinolinone]	51	
CCCCCCCCOc1c(O)c2c(NC(=O)/C=C/c3cc(OC)c(O)c(OC)c3)cccc2n(C)c1=O [Compound 77, 5-[(3,5-dimethoxy-4-hydroxycinnamoyl)amino]-3-octyloxy-4-hydroxy-1-methyl-2(1H)-quinolinone]	55	
CCCCCCCCOc1c(O)c2cc(NC(=O)/C=C/c3cc(OC)c(O)c(OC)c3)ccc2n(C)c1=O [Compound 78, 6-[(3,5-dimethoxy-4-hydroxycinnamoyl)amino]-3-octyloxy-4-hydroxy-1-methyl-2(1H)-quinolinone]	50	
CCCCCCCCOc1c(O)c2cccc(NC(=O)/C=C/c3cc(OC)c(O)c(OC)c3)c2n(C)c1=O [Compound 79, 8-[(3,5-dimethoxy-4-hydroxycinnamoyl)amino]-3-octyloxy-4-hydroxy-1-methyl-2(1H)-quinolinone]	49	
CCCCOc1c(O)c2cc(C(=O)OCC)ccc2n(C)c1=O [Compound 80, 6-ethoxycarbonyl-3-butoxy-4-hydroxy-1-methyl-2(1H)-quinolinone]	41	
CCCCOc1c(O)c2cccc(C(=O)Oc3ccccc3)c2n(C)c1=O [Compound 83, 8-phenoxycarbonyl-3-butoxy-4-hydroxy-1-methyl-2(1H)-quinolinone]	42	
CCCCCCCCOc1cccc2c1c(O)c(OC)c(=O)n2C [Compound 84, 5-octyloxy-3-methoxy-4-hydroxy-1-methyl-2(1H)-quinolinone]	49	
CCCCCCOc1c(O)c2cccc(OCCCCCC)c2n(C)c1=O [Compound 85, 3,8-dihexyloxy-4-hydroxy-1-methyl-2(1H)-quinolinone]	50	
CCCCCCCCOc1c(O)c2cccc(NC)c2n(C)c1=O [Compound 86, 8-methylamino-3-octyloxy-4-hydroxy-1-methyl-2(1H)-quinolinone]	53	
COc1ccc(/C=C/C(=O)Nc2ccccc2C(=O)O)cc1OC [Tranilast, reference compound]		52
